Columns and labels:
Experiment in all cases: Fluorescence dose-response of purified binding-pocket-engineered sensors (0.75 uM) in 100 mM Tris-HCl pH 7.5, room temperature, 1 mM ATP, 2.5 mM MgCl2, excitation 460 or 480 nm, emission 510 nm; logistic five-parameter fit.
Format in all cases: biochemical
Conditions in all cases: n = 3
GECFINDER-Leu1 = target: T1, GECFINDER-Leu1 (Aneurinibacillus migulanus, UniProt P0C061, A301G/T278M)
T1 construct: gene grsA; GrsA-PheA-PCP
Method: (§1) Fig. 4 Engineering ligand specificity of GrsA-PheA for generating […]s. a The selectivity-conferring code of Phe and Leu A domains. b–f Dose–response curve of purified […]s with increasing concentrations of ligands in 100 mM Tris-HCl buffer (pH=7.5). All data shown are means ± S.D. (n = 3 biologically independent samples). g A series of […] reactions was tested to show the […]’s specificity with 20 proteinogenic amino acids. The values on the heatmap represent the ΔF/F0 value normalized to each […]’s maximal ΔF/F0 value ((ΔF/F0)/maximal ΔF/F0). The concentrations of 20 amino acids were 100 μM. The color indicates the average value of three independent biological replicates after 15 min. All data shown are means ± S.D. (n = 3 biologically independent samples). Source data are provided as a Source data file.
(§2) The study conducted dose–response curve, substrate specificity, and fluorescent spectrum analyses in 100-mM Tris buffer (pH = 7.5), while pH stability experiments were performed in 100-mM Tris buffer at three different pH values (6.5, 7.5, and 8.5) at room temperature. […] protein at a concentration of 0.75 μM, various small molecule concentrations, 1 mM ATP, and 2.5 mM MgCl2 were used in the experiments. Fluorescent signals were detected using a Microplate Reader (Synergy H4, Bio Tek) at an excitation/emission wavelength of 460 nm/510 nm or 480 nm/510 nm. The dose-response curve was determined immediately after the addition of the analyte. The total duration of the measurement was 15 min, with readings taken at one-minute intervals. The dose-response curve was plotted using the fluorescence values obtained after achieving stability in the fluorescence signal. The dose-response curves were fitted using the logistic model LOGISTIC5 available in Origin 2021, which could provide a more adequate fit to asymmetric dose-response data[62],[63]. Excitation spectra were scanned from 300 to 540 nm with a step size of 5 nm, and the emission wavelength was set to 560 nm. Emission spectra were scanned from 470 to 700 nm with a step size of 5 nm, and the excitation wavelength was set to 450 nm. The thermal stability of […] was analyzed using the UNcle multifunctional protein stability analysis system. Measurements were performed in 20 mM MOPS buffer with 2 mM DTT at a sample concentration of 1 mg/mL. Absolute fluorescence quantum yields were measured using an absolute photoluminescence quantum yield spectrometer (FS5, Edinburgh).

GECFINDER-Leu2 = target: T2, GECFINDER-Leu2 (Aneurinibacillus migulanus, UniProt P0C061, A301G/I277L/T278L)
T2 construct: gene grsA
T2 sequence (P0C061 1-617 I277L/T278L/A301G): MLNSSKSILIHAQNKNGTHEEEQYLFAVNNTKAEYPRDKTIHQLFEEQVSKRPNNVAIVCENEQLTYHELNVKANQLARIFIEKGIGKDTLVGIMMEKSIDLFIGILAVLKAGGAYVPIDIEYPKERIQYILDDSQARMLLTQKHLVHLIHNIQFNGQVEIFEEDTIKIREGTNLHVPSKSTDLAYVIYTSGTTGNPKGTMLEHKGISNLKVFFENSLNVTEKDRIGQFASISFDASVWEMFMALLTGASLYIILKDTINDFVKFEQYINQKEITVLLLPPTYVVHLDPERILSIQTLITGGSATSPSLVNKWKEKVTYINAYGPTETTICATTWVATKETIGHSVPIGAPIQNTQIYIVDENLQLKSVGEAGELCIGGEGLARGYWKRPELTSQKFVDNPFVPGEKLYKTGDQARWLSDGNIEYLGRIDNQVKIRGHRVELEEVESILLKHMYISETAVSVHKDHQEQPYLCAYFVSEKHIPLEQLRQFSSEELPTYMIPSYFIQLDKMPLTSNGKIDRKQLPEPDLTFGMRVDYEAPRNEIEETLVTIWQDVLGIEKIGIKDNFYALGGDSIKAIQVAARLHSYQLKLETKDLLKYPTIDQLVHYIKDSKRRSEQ
Method: as §1, §2

GECFINDER-Leu3 = target: T3, GECFINDER-Leu3 (Aneurinibacillus migulanus, UniProt P0C061, A301G/S447N/T278L)
T3 construct: gene grsA
T3 sequence (P0C061 1-617 T278L/A301G/S447N): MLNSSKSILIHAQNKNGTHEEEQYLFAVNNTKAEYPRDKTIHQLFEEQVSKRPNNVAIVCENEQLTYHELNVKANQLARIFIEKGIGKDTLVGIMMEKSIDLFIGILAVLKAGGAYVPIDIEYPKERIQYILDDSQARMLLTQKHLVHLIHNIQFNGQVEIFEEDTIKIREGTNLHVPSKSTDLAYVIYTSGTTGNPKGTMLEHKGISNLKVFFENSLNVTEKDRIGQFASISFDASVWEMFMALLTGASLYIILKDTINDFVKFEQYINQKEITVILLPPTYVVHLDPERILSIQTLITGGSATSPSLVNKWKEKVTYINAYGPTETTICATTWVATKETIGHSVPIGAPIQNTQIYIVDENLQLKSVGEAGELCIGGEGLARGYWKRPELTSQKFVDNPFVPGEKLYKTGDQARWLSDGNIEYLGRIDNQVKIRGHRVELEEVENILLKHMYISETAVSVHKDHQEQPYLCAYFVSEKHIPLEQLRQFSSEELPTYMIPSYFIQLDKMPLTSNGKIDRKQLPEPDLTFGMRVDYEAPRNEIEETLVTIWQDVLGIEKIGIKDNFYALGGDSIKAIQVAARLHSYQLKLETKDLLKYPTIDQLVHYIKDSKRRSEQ
Method: as §1, §2

GECFINDER-Leu4 = target: T4, GECFINDER-Leu4 (Aneurinibacillus migulanus, UniProt P0C061, A301G/I277L/S447N/T278L)
T4 construct: gene grsA
T4 sequence (P0C061 1-617 I277L/T278L/A301G/S447N): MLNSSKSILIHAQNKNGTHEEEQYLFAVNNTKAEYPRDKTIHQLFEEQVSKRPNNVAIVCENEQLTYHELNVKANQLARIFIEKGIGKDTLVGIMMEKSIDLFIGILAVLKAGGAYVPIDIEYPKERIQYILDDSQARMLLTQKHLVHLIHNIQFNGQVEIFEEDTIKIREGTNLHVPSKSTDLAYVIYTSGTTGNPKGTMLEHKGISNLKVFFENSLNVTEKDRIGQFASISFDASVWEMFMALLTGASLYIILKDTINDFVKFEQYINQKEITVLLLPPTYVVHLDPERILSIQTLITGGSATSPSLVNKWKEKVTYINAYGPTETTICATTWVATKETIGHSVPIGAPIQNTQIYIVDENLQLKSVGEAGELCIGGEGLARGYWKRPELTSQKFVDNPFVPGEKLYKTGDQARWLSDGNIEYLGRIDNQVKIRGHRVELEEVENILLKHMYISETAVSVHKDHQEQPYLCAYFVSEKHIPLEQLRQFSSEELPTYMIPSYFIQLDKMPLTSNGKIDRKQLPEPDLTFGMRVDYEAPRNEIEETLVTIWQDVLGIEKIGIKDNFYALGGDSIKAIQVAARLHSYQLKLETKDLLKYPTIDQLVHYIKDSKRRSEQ
Method: as §1, §2

T1 sequence (P0C061 1-617 T278M/A301G): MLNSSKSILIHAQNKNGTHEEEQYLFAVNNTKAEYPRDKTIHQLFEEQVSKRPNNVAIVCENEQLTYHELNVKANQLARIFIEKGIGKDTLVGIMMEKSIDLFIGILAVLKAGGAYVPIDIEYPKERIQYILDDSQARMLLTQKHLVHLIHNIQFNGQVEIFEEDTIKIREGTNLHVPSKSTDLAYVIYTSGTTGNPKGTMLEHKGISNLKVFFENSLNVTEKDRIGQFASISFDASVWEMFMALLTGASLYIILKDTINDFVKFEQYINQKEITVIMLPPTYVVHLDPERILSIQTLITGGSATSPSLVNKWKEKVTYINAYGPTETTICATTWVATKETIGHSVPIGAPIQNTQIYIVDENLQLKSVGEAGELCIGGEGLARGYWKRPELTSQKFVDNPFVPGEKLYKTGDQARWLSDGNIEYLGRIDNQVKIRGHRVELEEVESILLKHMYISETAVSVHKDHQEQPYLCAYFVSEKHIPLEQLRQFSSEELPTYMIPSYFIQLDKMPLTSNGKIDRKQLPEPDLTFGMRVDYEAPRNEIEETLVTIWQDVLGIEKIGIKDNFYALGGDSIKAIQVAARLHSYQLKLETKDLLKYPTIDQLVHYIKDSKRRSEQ

In the case of `CC(C)C[C@H](N)C(=O)O` [Leu, leucine], the EC50 (GECFINDER-Leu1) is reported as 58.4 ± 24.8 µM, the EC50 (GECFINDER-Leu2) is reported as 207 ± 37.2 µM and the EC50 (GECFINDER-Leu3) is reported as 200 ± 7.76 µM. It also gave an EC50 (GECFINDER-Leu4) of 106 ± 24.5 µM.
